{"source": "patent US7094759B2", "about": "“Oral modified SSP-5 antibacterial composition” (GC Corporation, priority 2003, dated 2006)", "assay_in_all_cases": "Adhesion suppressing properties on saliva treatment sensor chip (BIAcore)", "conditions_in_all_cases": "peptide solution 1 mg/mL in PBS pH7.4", "key": {"S. sanguis (ATCC10558)": {"system": "S. sanguis (ATCC10558)", "type": "binding, Streptococcus sanguis", "procedure": "(§1) S. sanguis (ATCC10556, ATCC10558), S. mutans (ATCC25175) were used as intraoral bacteria. All bacteria were cultured under an anaerobic conditions using Brain Heart Infusion broth (BHI; Difco Lavoratory, Detroit, Mich.) as a culture medium.\n(§2) The specimen was stimulus saliva secreted by biting paraffine wax for 3 minutes by 3 subjects (A, B, C). The saliva was collected, incubated at 4° C. for 5 minutes, and centrifuged at 10000×g for 10 minutes at 4° C. Then, the supernatant was used the saliva specimen.\n(§3) The adhesion suppressing properties of bacteria was confirmed by using a sensor chip as a substitute for a tooth. As the sensor chip, Pioneer Sensor Chip F1 (produced by BIAcore Company) was used. The sensor chip F1 was activated at flow speed of […] for 1 minute with 70 μL of 400 mM N-ethyl-N′-(3-diaethylaminoprophyl) carbodiimide and 100 mM N-hydroxy siccinimide solution. Then, the above saliva specimen was diluted 20 times, and bonded on the chip by passing 70 μL of sample over the activated chip. (Hereinafter, this chip was said to as a saliva treatment sensor chip)\n(§4) The confirmation method of the adhesion suppressing properties by BIA core™ Biosensor system (produced by BIAcore Company) will be explained. First, each bacteria is passed over the saliva treatment sensor chip at 0.D.=1 (550 nm) and a flow speed of 20 μL/min. Then, the bonding state (Response Unit:RU) between the bacteria and saliva on the surface of the sensor chip was measured. The sensor chip was not carried out the peptide treatment.\n(§5) Then, to the other saliva treatment sensor chip, which was different from the saliva treatment sensor chip adhered with bacteria, a modified SSP-5(390–402) peptide solution (1 mg/mL) dissolved with a phosphate buffer solution (PBS, pH7.4) was passed over the sensor chip at flow speed of 10 μL/min, and the surface of the saliva treatment sensor chip was treated with the peptide. Then, each bacteria was passed over the chip at 0.D.=1 (550 nm) and flow speed of 20 μL/min, and the bonding state (Response Unit:RU) between each bacteria and saliva on the sensor surface was measured. The final bacterium adhesion suppressing ratio by the peptide treatment was measured using the following formula 1. Adhesion suppressing ratio=100×{[Bonding state between bacteria and saliva (RU)]−[Bonding state between bacteria and saliva (after the peptide treatment) (RU)]}/[Bonding state between bacteria and saliva (RU)] [Formula 1]"}, "S. sanguis (ATCC10556)": {"system": "S. sanguis (ATCC10556)", "type": "binding, Streptococcus sanguis", "procedure": "as §1, §2, §3, §4, §5"}, "S. mutans (ATCC25175)": {"system": "S. mutans (ATCC25175)", "type": "binding, Streptococcus mutans", "procedure": "as §1, §2, §3\nThe confirmation method of the adhesion suppressing properties by BIA core™ Biosensor system (produced by BIAcore Company) will be explained. […] Then, the bonding state (Response Unit:RU) between the bacteria and saliva on the surface of the sensor chip was measured. […]\nas §5, with “Adhesion suppressing ratio=100×{[Bonding state between bacteria and saliva (RU)]−[Bonding state between bacteria and saliva (after the peptide treatment) (RU)]}/[Bonding state between bacteria and saliva (RU)] [Formula 1]” left out"}}, "data": [{"substance": "modified SSP-5(390–402): Modified fragment (390–402) of Streptococcus sanguis surface protein SSP-5; position 400 (residue 11 of SEQ ID NO: 1) is threonine", "values": [{"measurement": "Adhesion suppressing ratio S. sanguis (ATCC10558)", "setting": "S. sanguis (ATCC10558); saliva sample A", "value": 59, "unit": "%"}, {"measurement": "Adhesion suppressing ratio S. sanguis (ATCC10558)", "setting": "S. sanguis (ATCC10558); saliva sample B", "value": 63, "unit": "%"}, {"measurement": "Adhesion suppressing ratio S. sanguis (ATCC10558)", "setting": "S. sanguis (ATCC10558); saliva sample C", "value": 61, "unit": "%"}, {"measurement": "Adhesion suppressing ratio S. sanguis (ATCC10556)", "setting": "S. sanguis (ATCC10556); saliva sample A", "value": 61, "unit": "%"}, {"measurement": "Adhesion suppressing ratio S. sanguis (ATCC10556)", "setting": "S. sanguis (ATCC10556); saliva sample B", "value": 57, "unit": "%"}, {"measurement": "Adhesion suppressing ratio S. sanguis (ATCC10556)", "setting": "S. sanguis (ATCC10556); saliva sample C", "value": 65, "unit": "%"}, {"measurement": "Adhesion suppressing ratio S. mutans (ATCC25175)", "setting": "S. mutans (ATCC25175); saliva sample A", "value": 55, "unit": "%"}, {"measurement": "Adhesion suppressing ratio S. mutans (ATCC25175)", "setting": "S. mutans (ATCC25175); saliva sample B", "value": 60, "unit": "%"}, {"measurement": "Adhesion suppressing ratio S. mutans (ATCC25175)", "setting": "S. mutans (ATCC25175); saliva sample C", "value": 58, "unit": "%"}]}]}
